# Test results: patent US12364689B2, “Dosage regimen for the treatment of cancer” (AstraZeneca AB, priority 2020, dated 2025)
# Entries after “also recorded” stand apart in the source; their conditions may differ.
# Legend:
# [1] = tested on: ER positive, HER2 negative advanced breast cancer; test: Phase 1 dose-escalation and expansion clinical trial: anti-tumour activity by RECIST 1.1; format: in vivo, human; settings: for ORR (%) objective response rate: responders/evaluable (percent)
# From the text: “Objective response rate” is the percentage of patients with measurable disease at baseline and who have a date of first dose of >17 weeks or a date of post-treatment scan of >15 weeks that indicates a confirmed response as measured by the RECIST criteria. “Clinical benefit rate” is the percentage of patients who have a date of first dose of ≥25 weeks or a date of post-treatment scan of >23 weeks that indicates a confirmed response or stable disease as measured by the RECIST criteria for >23 weeks post treatment. Introduction: To determine the optimal dosing regimen for AZD9833 Phase 1 dose-escalation and expansion in patients with ER positive, HER2 negative advanced breast cancer was carried out according to the following basic protocol. Overall Design: This is a multicentre dose escalation and expansion, first-in-human study designed to evaluate the safety and tolerability of AZD9833 alone (Parts A and B) in women with endocrine-resistant ER+HER2-breast cancer that is not amenable to treatment with curative intent. Efficacy Assessment: Anti-tumour activity will be evaluated using RECIST 1.1 by investigator assessments. Baseline tumour assessments should encompass all areas of known predilection for metastases in the disease under evaluation and should additionally investigate areas that may be involved based on signs and symptoms of individual subjects. Baseline assessments should be performed no more than 28 days before the start of AZD9833, ideally, as close as possible to the start of AZD9833. The methods of assessment used at baseline should be used at each subsequent assessment during treatment and follow-up part of the study. Any other sites at which new disease is suspected should also be appropriately imaged. If an unscheduled assessment is performed and the subject has not progressed, every attempt should be made to perform subsequent assessments at the scheduled visits while the subject remains on AZD9833 or until they have progressed. Categorisation of objective tumour response assessment will be based on the RECIST 1.1 guidelines for response: complete response (CR), partial response (PR), stable disease (SD), and progression of disease (PD). For subjects who only have non-measurable disease at baseline, categorisation of objective tumour response assessment will be based on the RECIST 1.1 guidelines for response for non-target lesions (NTLs): CR, PD, and non-CR/non PD. If the investigator is unsure whether progression has occurred, particularly with response to NTLs or the appearance of a new lesion, it is advisable to continue AZD9833 and reassess the subject's status at the next scheduled assessment, or sooner if clinically indicated. To achieve ‘unequivocal progression’ on the basis of non-target disease, there must be an overall level of substantial worsening in non-target disease such that, even in presence of SD or PR in the target disease, the overall tumour burden has increased sufficiently to merit discontinuation of therapy. A modest increase in the size of one or more NTLs is usually not sufficient to qualify for unequivocal disease progression status. A clinical trial according to the above protocol was carried out using 60 patients.
# [2] = tested on: women with ER+ HER2- advanced breast cancer; test: Phase 1 clinical trial: safety and tolerability (AEs, DLTs); format: in vivo
# Protocol: “Grade 4 or 5 adverse events” can be classified according to the common terminology criteria for adverse events (CTCAE).
# Dose Limiting Toxicity (DLT): a DLT is defined as an AE or abnormal laboratory value that occurs from the first dose of AZD9833 up to and including Day 28, Cycle 1 (the DLT period) that is assessed as unrelated to disease progression, intercurrent illness, or concomitant medications and that, despite optimal therapeutic intervention, meets any of the following criteria: • (a) Any death not clearly due to the underlying disease or extraneous causes • (b) Haematological toxicities as follows (CTCAE): • (i) Any >Grade 4 haematological toxicity present for more than 4 consecutive days, or requiring blood transfusions, G-CSF, or erythropoietins. • (ii)>Grade 3 neutropenia of any duration accompanied with fever ≥38.5° C. and/or systemic infection. • (iii)>Grade 3 thrombocytopenia of any duration with bleeding. • (iv) Grade 4 thrombocytopenia (regardless of duration or bleeding) • (c) Any non-haematological toxicity CTCAE >Grade 3 but with the following conditional stipulations: • (i) Nausea >CTCAE Grade 3 for more than 3 consecutive days despite administration of maximal anti-emetic therapy. • (ii) Vomiting >CTCAE Grade 3 for more than 3 consecutive days despite administration of maximal anti-emetic therapy. • (iii) Vomiting >CTCAE Grade 4 (regardless of duration) • (iv) Diarrhoea >CTCAE Grade 3 for more than 3 consecutive days despite administration of maximal anti-diarrheal therapy. • (v) Diarrhoea ≥ CTCAE Grade 4 (regardless of duration) • (vi) CTCAE Grade ≥3 fatigue that persists for more than 4 days. • (vii) CTCAE Grade ≥3 increase in creatinine. • (d) Other toxicity: • (i) QTcF value >500 ms or QTcF prolongation from baseline by 60 ms and >480 ms confirmed on at least 2 separate ECGs. • (ii)>CTCAE Grade 4 electrocardiogram QT corrected interval prolongation. • (iii) An increase in serum/plasma AST or ALT ≥3×ULN and concurrent TBL ≥2 ULN. • (e) Any other toxicity that: • (i) Is greater than at baseline and is clinically significant and/or unacceptable despite optimal therapeutic intervention, and is judged to be a DLT by the SRC, or • (ii) Results in a disruption of the dosing schedule of more than 14 days despite optimal therapeutic intervention.
# Safety and Clinical Assessments: The safety and tolerability of AZD9833 is the primary objective of this study. Related outcome measures are DLTs, AEs/SAEs, vital signs, clinical chemistry/haematology, and ECGs.
# Clinical Safety Laboratory Assessments: Clinical chemistry, haematology, and urinalysis and coagulation will be performed at a local laboratory at or near to the investigator study site. Sample tubes and sample sizes may vary depending on laboratory method used and routine practice at the study site.
# A clinical trial according to the above protocol was carried out using 60 patients.
smiles,measurement,setting,value
"C[C@@H]1Cc2c(ccc3[nH]ncc23)[C@@H](c2ccc(NC3CN(CCCF)C3)cn2)N1CC(F)(F)F [AZD9833, N-(1-(3-fluoropropyl)azetidin-3-yl)-6-((6S,8R)-8-methyl-7-(2,2,2-trifluoroethyl)-6,7,8,9-tetrahydro-3H-pyrazolo[4,3-f]isoquinolin-6-yl) pyridin-3-amine]",CBR (%) clinical benefit rate at 24 weeks,[1]; 25 mg QD oral (n = 12),4/12 (33.3) %
same,ORR (%) objective response rate,[1]; 25 mg QD oral (n = 12),1/9 (11.1) %
same,CBR (%) clinical benefit rate at 24 weeks,[1]; 75 mg QD oral (n = 12),8/12 (66.7) %
same,ORR (%) objective response rate,[1]; 75 mg QD oral (n = 12),1/7 (14.3) %
same,CBR (%) clinical benefit rate at 24 weeks,[1]; 150 mg QD oral (n = 13),4/13 (30.8) %
same,ORR (%) objective response rate,[1]; 150 mg QD oral (n = 13),2/11 (18.2) %
same,CBR (%) clinical benefit rate at 24 weeks,[1]; 300 mg QD oral (n = 13),3/11 (27.3) %
same,ORR (%) objective response rate,[1]; 300 mg QD oral (n = 13),2/10 (20.0) %
same,CBR (%) clinical benefit rate at 24 weeks,[1]; 450 mg QD oral (n = 10),3/4 (75.0) %
same,ORR (%) objective response rate,[1]; 450 mg QD oral (n = 10),1/6 (16.7) %
same,CBR (%) clinical benefit rate at 24 weeks,"[1]; Total, all doses (n = 60)",22/52 (42.3) %
same,ORR (%) objective response rate,"[1]; Total, all doses (n = 60)",7/43 (16.3) %
same,Evidence of clinical benefit and target engagement,"[1]; women with ER+ ABC, incl. pre-treated with CDK4/6 inhibitors and fulvestrant, and ESR1 mutations",observed at all dose levels
same,DLT observed,[2]; 300 mg,G3 QTcF prolongation
same,DLT observed,[2]; 450 mg,"G3 vomiting; also recorded: a combination of G2 visual disturbance, G2 headache and G2 gait disturbance"
same,G4 or 5 AEs,"[2]; 60 patients, all doses",No G4 or 5 AEs were reported
same,"Treatment-related AE: asthenia, patients affected","[2]; 60 patients, all doses",10%
same,"Treatment-related AE: bradycardia/sinus bradycardia, patients affected","[2]; 60 patients, all doses",45%
same,"Treatment-related AE: dizziness, patients affected","[2]; 60 patients, all doses",10%
same,"Treatment-related AE: fatigue, patients affected","[2]; 60 patients, all doses",13%
same,"Treatment-related AE: nausea, patients affected","[2]; 60 patients, all doses",18%
same,"Treatment-related AE: visual disturbances, patients affected","[2]; 60 patients, all doses",53%
same,"Treatment-related AE: vomiting, patients affected","[2]; 60 patients, all doses",10%
same,clinical relevance of observed AEs,"[2]; 60 patients, all doses",None of the observed AEs were deemed to be clinically relevant
same,patients who experienced DLTs,"[2]; of 60 patients, all doses",Three
same,"asthenia, share G1","[2]; of affected patients, grade 1",67%
same,"bradycardia/sinus bradycardia, share G1","[2]; of affected patients, grade 1",93%
same,"dizziness, share G1","[2]; of affected patients, grade 1",83%
same,"fatigue, share G1","[2]; of affected patients, grade 1",38%
same,"nausea, share G1","[2]; of affected patients, grade 1",46%
same,"visual disturbances, share G1","[2]; of affected patients, grade 1",91%
same,"vomiting, share G1","[2]; of affected patients, grade 1",50%
same,"asthenia, share G2","[2]; of affected patients, grade 2",33%
same,"bradycardia/sinus bradycardia, share G2","[2]; of affected patients, grade 2",7%
same,"fatigue, share G2","[2]; of affected patients, grade 2",63%
same,"nausea, share G2","[2]; of affected patients, grade 2",55%
same,"visual disturbances, share G2","[2]; of affected patients, grade 2",6%
same,"vomiting, share G2","[2]; of affected patients, grade 2",33%
same,"dizziness, share G3","[2]; of affected patients, grade 3",17%
same,"visual disturbances, share G3","[2]; of affected patients, grade 3",3%
same,"vomiting, share G3","[2]; of affected patients, grade 3",17%
